“And” between values parts separate entries of the source, which are not always exact repeats. Identical values can stand only once. “Also recorded” adds a separate entry of the source.
Key:
whole blood [1] = assay: In vitro P50 of whole blood after incubation with effector, mouse; assay type: cell-based
Experimental: (§1) For the in vitro experiments, ITPP was dissolved in deionized water, pH was adjusted to pH 7 and, for incubation with whole blood, the osmolarity of the ITPP solutions was adjusted with glucose to 270-297 mOsM. Mixtures of hemoglobin and ITPP were measured with a HEMOX analyzer (PD Marketing, London) immediately after mixing. Red blood cells were incubated with ITPP for 1 hour at 37° C. Following incubation, the cells were washed 3 times with Bis-Tris-buffer (pH=7.0) and then used for P50 measurement.
(§2) ITPP was tested along with a cholesteroyl derivative (here designated as kf96) (both at 60 mM) as effectors for P50 shifts in whole blood of three species: human, mouse and pig. As usual, pHs for the compound-solutions were adjusted to ca. 7.0, osmolarities for both solutions were determined (325-373 mOsM) prior to treatment with the effectors, and whole blood volumes at 1:1 ratios were incubated.

porcine RBCs = assay: P50 shift of porcine RBCs after intravenous injection; assay type: in vivo, piglet; settings: intravenous 1 g ITPP/kg body weight
Experimental: (§3) An in vivo experiment was performed on one 8 week-old normal piglet (body weight: 17 kg). The piglet was anesthesized with 5% Isoflurane, 0.7 L/min N2O and 2.0 L/min O2 for 20-30 minutes, when ITPP was injected, or blood was taken from the ear vein, respectively. The compound injected intravenous at a concentration of 27 g ITPP/100 ml water (volume injected: 63 ml, pH 6.5, containing 17 g ITPP=1 g/l kg body weight) was not harmful to the animal, when injected into the piglet's ear vein over at least 10 minutes.
(§4) Intravenous injection of 1 g ITPP/kg body weight caused a significant right shift of the P50-value (up to 20%) in porcine RBCs. An almost saturated ITPP solution, pH 6.7, was injected intravenously into two piglets (both of ca. 18 kg body weight) (27 g ITPP/100 ml=1.5 g/kg body weight) over 20 minutes.

circulating RBCs = assay: P50 shift of circulating RBCs after ip injection; assay type: in vivo, C57B1/6 mice; settings: for P50 Shift %, 2 h, Mean +/- SD / P50 Shift %, 24 h, Mean +/- SD / P50 Shift %, 2 h / P50 Shift %, 24 h: ip; for P50 Shift %, 2 h, Mean +/- SD / P50 Shift %, 24 h, Mean +/- SD: 5 animals; for P50 Shift %, 2 h / P50 Shift %, 24 h: single animal
Experimental: (§5) Blood from C57B1/6 mice collected 2 hrs and 1 day after injection of 45, 60, 120 and 150 mM solutions of ITPP was measured for P50-shifts as reported. […] No animal died or seemed to suffer from the compound.

[2] = Tolerability and toxicity of intravenous injection in piglets; assay type: in vivo
Experimental: as §3, §4
Blood was taken from the heart of the dead animals for determination of blood counts as well as the amount of sodium, potassium and calcium in the sera. All numbers of blood cells (hematocrit, white blood cells etc.) were halved. The amount of potassium and calcium was normal, while sodium was doubled (before injection: 120-140 mmol/L; after injection: 245 mmol/L). Apparently, the large amount of sodium in that form of ITPP (6 Na^+/molecule) caused the death of the animals. It appears that up to 1 g ITPP per kg body weight can be injected intravenously, (if injected slowly) without harmful effects for the animals. […] A second piglet was also injected with ITPP at the 1 g/kg concentration, after 2 piglets had died after iv injection of 1.2 g ITPP (or even more) per kg body weight. […] Starting with day 3 after injection of the allosteric effector, the number of reticulocytes increased by about 3% for a period of 14 days.

circulating RBC = assay: P50 shift of circulating RBC after oral administration in drinking water; assay type: in vivo, C57BL/6 mice
Experimental: In experiments conducted in vivo in which ITPP was administered orally, ITPP was dissolved in drinking (not deionized) water at a 20 g/L-concentration (=27 mM, pH 7.0) and offered for drinking ad libitum. A significant shift of the P50 value of circulating RBCs was observed.
(§6) Twelve C57BL/6 mice drank ITPP over 4 days (about 25 ml/24 hrs). Seven Control mice drank either pure water (three mice), or a solution of IHP (inositol hexaphosphate without the internal pyrophosphate rings) at the same concentration and pH as ITPP (4 mice). […] Blood was collected from the tail vein of the 12 C57BL/6 mice on day 0 (before treatment started), 1, 2, 4, 6, 7, 8, 10, 11 and 12, in order to measure P50 values. […] Oral application of ITPP caused significant right shifts of P50 (up to 31%) in mice.
The 12 mice were observed over 12 days, the P50 values of their circulating RBC were measured almost daily. […] It appears that all mice ingesting the aqueous solution of ITPP present a shift of the P50 value of their circulating RBC, albeit with individual differences. FIG. 8 illustrates the individual differences in the P50 shift induced in the mice by ingestion of the aqueous solution of ITPP.

whole blood [3] = assay: In vitro P50 of whole blood after incubation with effector, human; assay type: cell-based; settings: 60 mM
Experimental: as §1, §2

[4] = Blood counts of mice after oral ingestion; assay type: in vivo; settings: single mouse, oral in water for 4 days; day 0 count 8.9-11.8
[5] = Blood counts of mice after oral ingestion; assay type: in vivo
Description: Blood from mice that ingested ITPP or IHP in water (for 4 days) or water only was collected on day 0, 7 and 11, in order to assess any differences in the blood count (and the amount of erythropoietin in the sera) of treated and control mice. […] The amount of blood from the other mice was not sufficient to determine the blood count.

[6] = Tolerability of oral treatment in mice; assay type: in vivo, C57BL/6 mice; settings: drinking over 4 days
Experimental: as §6

[7] = Tolerability of ITPP injection in mice; assay type: in vivo, C57B1/6 mice
Experimental: as §5

Q: Which “P50 increase, % (ITPP)” value (whole blood [1]; mouse whole blood, 60 mM) does the source give for O=P1(O)OC2C3OP(=O)(O)OP(=O)(O)OC3C3OP(=O)(O)OP(=O)(O)OC3C2OP(=O)(O)O1 (stereo not drawn) [ITPP, inositol-tripyrophosphate] here?
A: Its value is 29%.

Q: What about the “P50 mm Hg effector ITPP” value (whole blood [1]; mouse whole blood, 60 mM, control 36.7) of the same compound?
A: Its value is 47.4 mm Hg.

Q: What about the “shift of the P50 value to higher PO2” value (whole blood [1]; murine whole blood) of the same compound?
A: The value was “up to 40%”.

Q: What about the “right shift of the P50-value” (porcine RBCs) of the same compound?
A: Its value is “up to 20%”.

Q: And the “time at which the P50 shift appears after inoculation” value (circulating RBCs; ip inoculation)?
A: The value was 2 h.

Q: And the “P50 Shift %, 2 h, Mean +/- SD” value (circulating RBCs; 45 mM)?
A: The value was 11.8 +/− 1.16%.

Q: What about the “P50 Shift %, 24 h, Mean +/- SD” value (circulating RBCs; 45 mM) of the same compound?
A: The value was 13.6 +/− 1.02%.

Q: And the “P50 Shift %, 2 h” value (circulating RBCs; 45 mM)?
A: The value was 10% and 13% (2×) and 12% and 11%.

Q: What about the “P50 Shift %, 24 h” value (circulating RBCs; 45 mM) of the same compound?
A: Its value is 8%.

Q: And the “P50 Shift %, 2 h, Mean +/- SD” value (circulating RBCs; 60 mM)?
A: Its value is 16.9 +/− 3.48%.

Q: What about the “P50 Shift %, 24 h, Mean +/- SD” value (circulating RBCs; 60 mM) of the same compound?
A: The value was 17.2 +/− 2.1%.

Q: And the “P50 Shift %, 2 h” value (circulating RBCs; 60 mM)?
A: The value was 12% and 14% and 17% and 21% and 20.5%.

Q: And the “P50 Shift %, 24 h” value (circulating RBCs; 60 mM)?
A: The value was 14% and 16% and 17% and 20% and 19%.

Q: What about the “P50 Shift %, 2 h, Mean +/- SD” value (circulating RBCs; 120 mM) of the same compound?
A: The value was 26.0 +/− 2.28%.

Q: And the “P50 Shift %, 24 h, Mean +/- SD” value (circulating RBCs; 120 mM)?
A: Its value is 24.8 +/− 2.7%.

Q: And the “P50 Shift %, 2 h” value (circulating RBCs; 120 mM)?
A: The value was 28% and 29% and 24% and 26% and 23%.

Q: What about the “P50 Shift %, 24 h” value (circulating RBCs; 120 mM) of the same compound?
A: The value was 28% (2×) and 22% (2×) and 24%.

Q: What about the “P50 Shift %, 2 h, Mean +/- SD” value (circulating RBCs; 150 mM) of the same compound?
A: Its value is 27.0 +/− 1.78%.

Q: What about the “P50 Shift %, 24 h, Mean +/- SD” value (circulating RBCs; 150 mM) of the same compound?
A: The value was 25.8 +/− 2.78%.

Q: And the “P50 Shift %, 2 h” value (circulating RBCs; 150 mM)?
A: The value was 26% (2×) and 28% and 30% and 25%.

Q: And the “P50 Shift %, 24 h” value (circulating RBCs; 150 mM)?
A: Its value is 25% and 26% and 31% and 24% and 23%.

Q: What about the “harmfulness of intravenous injection” value ([2]; 1 g/kg body weight, injected slowly over at least 10 minutes) of the same compound?
A: The value was “not harmful”.

Q: And the “amount of potassium and calcium in the sera” value ([2]; after lethal iv injection)?
A: Its value is “normal”.

Q: And the “sodium in the sera after injection” value ([2]; after lethal iv injection, before injection 120-140)?
A: Its value is 245 mmol/L.

Q: What about the “numbers of blood cells (hematocrit, white blood cells etc.) in the dead animals” value ([2]; heart blood after lethal iv injection) of the same compound?
A: The value was “halved”.

Q: What about the “amount that can be injected intravenously without harmful effects” value ([2]; if injected slowly) of the same compound?
A: The value was “up to 1 g ITPP per kg body weight”.

Q: And the mortality ([2]; iv, almost saturated solution 27 g/100 ml, intended 1.5 g/kg over 20 minutes, received <1.3 g/kg)?
A: Its mortality is “Both piglets died; also recorded: killed the animals”.

Q: What about the “time for P50 values to return to control values” (circulating RBC; ingestion stopped on day 4) of the same compound?
A: Its value is at most 12 days.

Q: And the “time lag before the maximum P50 shift is attained” value (circulating RBC; oral, 27 mM)?
A: The value was “about 48 hrs”.

Q: And the “right shift of P50” value (circulating RBC; oral, 20 g/L (27 mM) in drinking water over 4 days)?
A: Its value is “up to 31%”.

Q: What about the “P50 day 7, %” value (circulating RBC; single mouse, oral in water for 4 days, day 7) of the same compound?
A: Its value is 13% and 14% and 20% (2×) and 16% (2×) and 15% and 7% and 9%.

Q: And the “P50 day 10, %” value (circulating RBC; single mouse, oral in water for 4 days, day 10)?
A: Its value is 10% (3×) and 6% and 12% and 16% and 8% and 11% and 9%.

Q: And the “P50 increase, % (ITPP)” value (whole blood [3])?
A: Its value is 39%.

Q: What about the “P50 mm Hg effector ITPP” value (whole blood [3]; control 22.1) of the same compound?
A: The value was 30.8 mm Hg.

Q: And the “RBC × 10^6/mm^3” value [4]?
A: The value was 9.35 10^6/mm^3 and 8.60 10^6/mm^3 and 8.95 10^6/mm^3 (2×) and 8.88 10^6/mm^3 and 8.70 10^6/mm^3 and 8.73 10^6/mm^3 and 7.65 10^6/mm^3 and 7.80 10^6/mm^3.

Q: What about the “time until the basal value of the RBC count is restored” value ([5]; after ingestion, once ΔP50 becomes 0%) of the same compound?
A: The value was 12 days.

Q: What about the “number of RBCs” value ([5]; oral ingestion for 4 days) of the same compound?
A: Its value is “reduced significantly”.

Q: And the “number of white blood cells versus other groups” value ([5]; oral ingestion for 4 days)?
A: The value was “no major differences”.

Q: What about the “RBC × 10^6/mm^3 (day 7)” value ([5]; single mouse, oral in water for 4 days, day 7, day 0 count 8.9-11.8) of the same compound?
A: The value was 6.60 10^6/mm^3 and 5.73 10^6/mm^3 and 6.35 10^6/mm^3 and 5.64 10^6/mm^3 and 5.45 10^6/mm^3 and 8.76 10^6/mm^3 and 7.70 10^6/mm^3 and 6.54 10^6/mm^3 (2×).

Q: What about the “tolerability of oral treatment” value [6] of the same compound?
A: The value was “No C57BL/6 mouse seemed to suffer”.

Q: What about the tolerability ([7]; ip, concentrations up to 150 mM, no animal died) of the same compound?
A: Its tolerability is “well tolerated”.

Q: And the tolerability ([7]; mice, concentration of 120 mM)?
A: Its tolerability is “well tolerated”.

Reference: patent US20110294732A1, “ERYTHROPOLETIN COMPLEMENTATION OR REPLACEMENT” (Universite De Strasbourg, priority 2007, published 2011)
